Assay results reported in patent US20240158446A1, “CYCLIC COMPOUND HAVING SELECTIVE INHIBITORY ACTION ON KRAS OVER HRAS AND NRAS” (CHUGAI SEIYAKU KABUSHIKI KAISHA, priority 2021, published 2024).
Like-named read-outs stand apart in the source and are kept apart here.

What was measured:
[1] = target: GDP-bound KRAS wild-type protein (Homo sapiens, UniProt P01116); test: Binding to KRAS by surface plasmon resonance (SPR), Single Cycle Kinetics; details: GDP-bound KRAS wild-type protein, read-out: KRAS KD
Sequence of GDP-bound KRAS wild-type protein (P01116 whole entry): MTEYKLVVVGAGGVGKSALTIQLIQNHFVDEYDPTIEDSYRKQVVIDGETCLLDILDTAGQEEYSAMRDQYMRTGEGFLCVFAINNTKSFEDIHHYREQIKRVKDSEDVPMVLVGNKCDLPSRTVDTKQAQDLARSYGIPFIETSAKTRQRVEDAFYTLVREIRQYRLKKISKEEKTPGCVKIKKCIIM

[2] = target: GDP-bound NRAS wild-type protein (Homo sapiens, UniProt P01111); test: Binding to NRAS by surface plasmon resonance (SPR), Single Cycle Kinetics; details: for NRAS/KRAS (ratio of KD value for NRAS to KD value for KRAS) / NRAS/KRAS (KD ratio): SPR; for NRAS/KRAS (ratio of KD value for NRAS to KD value for KRAS): GDP-bound NRAS wild-type protein vs GDP-bound KRAS wild-type protein; for NRAS/KRAS (KD ratio): ratio of KD for GDP-bound NRAS wild-type protein to KD for KRAS
Sequence of GDP-bound NRAS wild-type protein (P01111 whole entry): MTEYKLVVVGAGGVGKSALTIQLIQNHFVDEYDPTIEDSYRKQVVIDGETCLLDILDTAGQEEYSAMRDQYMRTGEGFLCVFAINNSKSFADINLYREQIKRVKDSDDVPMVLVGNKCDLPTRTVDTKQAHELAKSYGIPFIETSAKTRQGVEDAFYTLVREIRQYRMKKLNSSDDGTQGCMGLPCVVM

[3] = target: GDP-bound HRAS wild-type protein (Homo sapiens, UniProt P01112); test: Binding to HRAS by surface plasmon resonance (SPR), Single Cycle Kinetics; details: for HRAS/KRAS (ratio of KD value for HRAS to KD value for KRAS) / HRAS/KRAS (KD ratio): SPR; for HRAS/KRAS (ratio of KD value for HRAS to KD value for KRAS): GDP-bound HRAS wild-type protein vs GDP-bound KRAS wild-type protein; for HRAS/KRAS (KD ratio): ratio of KD for GDP-bound HRAS wild-type protein to KD for KRAS
Sequence of GDP-bound HRAS wild-type protein (P01112 whole entry): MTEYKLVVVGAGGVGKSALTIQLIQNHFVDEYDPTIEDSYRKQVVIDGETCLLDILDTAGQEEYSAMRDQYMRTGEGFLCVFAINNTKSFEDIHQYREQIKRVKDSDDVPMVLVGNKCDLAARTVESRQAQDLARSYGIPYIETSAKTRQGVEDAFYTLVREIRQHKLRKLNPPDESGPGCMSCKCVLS

[4] = test system: human lung cancer strain NCI-H441;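 further: cell proliferation inhibition after four days measured by CellTiter-Glo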
[5] = SPR, Single Cycle Kinetics, 1:1 binding model

| Compound | Kd [1, 5] [nM] | IC50 [4] [nM] | Kd ([1]; SPR, Single Cycle Kinetics) [nM] | NRAS/KRAS (ratio of KD value for NRAS to KD value for KRAS) ([2]; KD ratio class) | HRAS/KRAS (ratio of KD value for HRAS to KD value for KRAS) ([3]; KD ratio class) | other results |
| --- | --- | --- | --- | --- | --- | --- |
| CC[C@H](C)[C@@H]1NC(=O)[C@H](CC)N(C)C(=O)C[C@@H](C(=O)N(C)C)N(C)C(=O)[C@H](C2CCCC2)N(C)C(=O)C2(CCCC2)NC(=O)[C@@H]2CCCN2C(=O)[C@H](CCc2cc(F)c(C(F)(F)F)c(F)c2)NC(=O)CN(C)C(=O)[C@H](Cc2ccc(C(F)(F)F)cc2)N2C[C@H](C)[C@H](C)C[C@@H](C2=O)N(C)C(=O)CN(C)C1=O [PP1364] | 0.05 | 7.1 |  | A (a compound having 10 or more and less than 20 is denoted as A) | B (a compound having 3 or more and less than 10 is denoted as B) |  |
| CC[C@H](C)[C@@H]1NC(=O)[C@H](CC)N(C)C(=O)C[C@@H](C(=O)N2CCOCC2)N(C)C(=O)[C@H](C2CCCC2)N(C)C(=O)C2(CCCC2)NC(=O)[C@@H]2CCCN2C(=O)[C@H](CCc2cc(F)c(C(F)(F)F)c(F)c2)NC(=O)CN(C)C(=O)[C@H](Cc2ccc(C(F)(F)F)cc2)N2C[C@H](C)[C@H](C)C[C@@H](C2=O)N(C)C(=O)CN(C)C1=O [PP1365] | 0.13 | 4.2 |  | A (a compound having 10 or more and less than 20 is denoted as A) | B (a compound having 3 or more and less than 10 is denoted as B) |  |
| CCO[C@@H]1C[C@H]2C(=O)NC3(CCC3)C(=O)N(C)[C@@H](C3CCCC3)C(=O)N(C)[C@H](C(=O)N3CCOCC3)CC(=O)N(C)[C@@H](Cc3cccc(C)c3)C(=O)N[C@@H]([C@@H](C)CC)C(=O)N(C)CC(=O)N(C)[C@H]3CCCCCN(C3=O)[C@@H](Cc3ccc(C(F)(F)F)cc3)C(=O)N(C)CC(=O)N[C@@H](CCc3cc(F)c(C(F)(F)F)c(F)c3)C(=O)N2C1 [PP0932] |  | 158 | 2.9 |  |  | NRAS/KRAS (ratio of KD value for NRAS to KD value for KRAS) [2]: B (a compound having 3 or more and less than 10 is denoted as B); HRAS/KRAS (ratio of KD value for HRAS to KD value for KRAS) [3]: B (a compound having 3 or more and less than 10 is denoted as B) |
| CCO[C@@H]1C[C@H]2C(=O)NC3(CC(C)(C)C3)C(=O)N(C)[C@@H](C3CCCC3)C(=O)N(C)[C@H](C(=O)N(CC)CC)CC(=O)N(C)[C@@H](COC)C(=O)N[C@@H]([C@@H](C)CC)C(=O)N(C)CC(=O)N(C)[C@H]3C/C=C\CCN(C3=O)[C@@H](Cc3ccc(C)cc3)C(=O)N(C)CC(=O)N[C@@H](CCc3cc(F)c(C(F)(F)F)c(F)c3)C(=O)N2C1 [PP2403] |  | 7.2 | 0.22 |  |  | NRAS/KRAS (ratio of KD value for NRAS to KD value for KRAS) [2]: A (a compound having 10 or more and less than 20 is denoted as A); HRAS/KRAS (ratio of KD value for HRAS to KD value for KRAS) [3]: A (a compound having 10 or more and less than 20 is denoted as A) |
| CC[C@H](C)[C@@H]1NC(=O)[C@H](COC)N(C)C(=O)C[C@@H](C(=O)N2CCCCC2)N(C)C(=O)[C@H](C2CCCC2)N(C)C(=O)C2(CC(C)(C)C2)NC(=O)[C@@H]2C[C@@H](OC(C)C)CN2C(=O)[C@H](CCc2ccc(Cl)c(Cl)c2)NC(=O)CN(C)C(=O)[C@H](Cc2ccc(C(F)(F)F)cc2)N2CC/C=C\C[C@@H](C2=O)N(C)C(=O)CN(C)C1=O [PP2671] |  | 26.3 |  |  |  | Kd ([1]; SPR Single Cycle Kinetics, 1:1 binding model): 0.67 nM; NRAS/KRAS (ratio of KD value with respect to GDP-bound NRAS wild-type protein to KD value with respect to KRAS) ([2]; SPR KD ratio NRAS/KRAS, class symbols): A (a compound having 10 or more and less than 20 is denoted as A); HRAS/KRAS (ratio of KD value with respect to GDP-bound HRAS wild-type protein to KD value with respect to KRAS) ([3]; SPR KD ratio HRAS/KRAS, class symbols): A (a compound having 10 or more and less than 20 is denoted as A) |
| CCO[C@@H]1C[C@H]2C(=O)NC3(CC(C)(C)C3)C(=O)N(C)[C@@H](C3CCCC3)C(=O)N(C)[C@H](C(=O)N(C)CC)CC(=O)N(C)[C@H]3CCCC/C=C/c4ccc(cc4)C[C@@H](C(=O)N(C)CC(=O)N[C@@H](CCc4cc(F)c(C(F)(F)F)c(F)c4)C(=O)N2C1)N1CC/C=C\C[C@@H](C1=O)N(C)C(=O)CN(C)C(=O)[C@H]([C@@H](C)CC)NC3=O [PP1829] |  | 2.3 | 0.033 |  |  | NRAS/KRAS (KD ratio) [2]: A (a compound having 10 or more and less than 20 is denoted as A); HRAS/KRAS (KD ratio) [3]: B (a compound having 3 or more and less than 10 is denoted as B) |
| CC[C@H](C)[C@@H]1NC(=O)[C@H](CC(C)C)N(C)C(=O)C[C@@H](C(=O)N(C)CC)N(C)C(=O)[C@H](C2CCCC2)N(C)C(=O)C2(CC(C)(C)C2)NC(=O)[C@@H]2C[C@H](C)CN2C(=O)[C@H](CCc2ccc(C(F)(F)F)c(OC)c2)NC(=O)CN(C)C(=O)[C@H](Cc2ccc(C)cc2)N2CC/C=C\C[C@@H](C2=O)N(C)C(=O)[C@@H]2CCCN2C1=O [PP2410] |  | 108 | 1.1 |  |  | NRAS/KRAS (ratio of KD value for NRAS to KD value for KRAS) [2]: A (a compound having 10 or more and less than 20 is denoted as A); HRAS/KRAS (ratio of KD value for HRAS to KD value for KRAS) [3]: A (a compound having 10 or more and less than 20 is denoted as A) |
| CC[C@H](C)[C@@H]1NC(=O)[C@H](CC(C)C)N(C)C(=O)C[C@@H](C(=O)N(C)C)N(C)C(=O)[C@H](C2CCCC2)N(C)C(=O)C2(CCC2)N(C)C(=O)[C@@H]2CCCN2C(=O)[C@H](CCc2cc(F)c(C(F)(F)F)c(F)c2)NC(=O)CN(C)C(=O)[C@H](Cc2ccc(C)cc2)N2CC/C=C\C[C@@H](C2=O)N(C)C(=O)CN(C)C1=O [PP1791] |  |  | 0.042 |  |  | NRAS/KRAS (KD ratio) [2]: A (a compound having 10 or more and less than 20 is denoted as A); HRAS/KRAS (KD ratio) [3]: A (a compound having 10 or more and less than 20 is denoted as A); IC50 ([4]; read-out: NCI-H441 IC50, NCI-H441 cell proliferation, 4 days, CellTiter-Glo): 3.7 nM |
| CCO[C@@H]1C[C@H]2C(=O)NC3(CCC3)C(=O)N(C)[C@@H](C3CCCC3)C(=O)N(C)[C@H](C(=O)N3CCOCC3)CC(=O)N(C)[C@@H](CC3CCCCC3)C(=O)N[C@@H]([C@@H](C)CC)C(=O)N(C)CC(=O)N(C)[C@H]3C/C=C\CCN(C3=O)[C@@H](Cc3ccc(C(F)(F)F)cc3)C(=O)N(C)CC(=O)N[C@@H](CCc3cc(F)c(C(F)(F)F)c(F)c3)C(=O)N2C1 [PP1418] | 0.24 | 29.9 |  | AA (a compound having 20 or more is denoted as AA) | A (a compound having 10 or more and less than 20 is denoted as A) |  |

Further lines, with some results ahead:

| Kd [1, 5] [nM] | IC50 [4] [nM] | Kd ([1]; SPR, Single Cycle Kinetics) [nM] | Compound | NRAS/KRAS (ratio of KD value for NRAS to KD value for KRAS) ([2]; KD ratio class) | HRAS/KRAS (ratio of KD value for HRAS to KD value for KRAS) ([3]; KD ratio class) | other results |
| --- | --- | --- | --- | --- | --- | --- |
| 0.073 | 3 |  | CCO[C@@H]1C[C@H]2C(=O)NC3(CC(C)(C)C3)C(=O)N(C)[C@@H](C3CCCC3)C(=O)N(C)[C@H](C(=O)N(C)C)CC(=O)N(C)[C@@H](CC3CCC3)C(=O)N[C@@H]([C@@H](C)CC)C(=O)N(C)CC(=O)N(C)[C@H]3C/C=C\CCN(C3=O)[C@@H](Cc3ccc(C(F)(F)F)cc3)C(=O)N(C)CC(=O)N[C@@H](CCc3ccc(C(F)(F)F)c(OC)c3)C(=O)N2C1 [PP1564] | A (a compound having 10 or more and less than 20 is denoted as A) | A (a compound having 10 or more and less than 20 is denoted as A) |  |
| 0.6 | 24.2 |  | CCO[C@@H]1C[C@H]2C(=O)NC3(CC(C)(C)C3)C(=O)N(C)[C@@H](C3CCCC3)C(=O)N(C)[C@H](C(C)C)CC(=O)N(C)[C@@H](CC)C(=O)N[C@@H]([C@@H](C)CC)C(=O)N(C)CC(=O)N(C)[C@H]3C/C=C\CCN(C3=O)[C@@H](Cc3ccc(C(F)(F)F)cc3)C(=O)N(C)CC(=O)N[C@@H](CCc3cc(F)c(C(F)(F)F)c(F)c3)C(=O)N2C1 [PP1588] | B (a compound having 3 or more and less than 10 is denoted as B) | B (a compound having 3 or more and less than 10 is denoted as B) |  |
|  | 7.6 | 0.02 | CCOC[C@H]1C(=O)N[C@@H]([C@@H](C)CC)C(=O)N(C)CC(=O)N(C)[C@H]2C/C=C\CCN(C2=O)[C@@H](Cc2ccc(C(F)(F)F)cc2)C(=O)N(C)CC(=O)N[C@@H](CCc2ccc(C(F)(F)F)c(OC)c2)C(=O)N2C[C@@H](C)C[C@H]2C(=O)N(C)C2(CCC2)C(=O)N(C)[C@@H](C2CCCC2)C(=O)N(C)[C@H](C(=O)N(C)C)CC(=O)N1C [PP2359] |  |  | NRAS/KRAS (ratio of KD value for NRAS to KD value for KRAS) [2]: A (a compound having 10 or more and less than 20 is denoted as A); HRAS/KRAS (ratio of KD value for HRAS to KD value for KRAS) [3]: B (a compound having 3 or more and less than 10 is denoted as B) |
| 0.19 | 18.7 |  | CCC[C@H]1C(=O)N[C@@H]([C@@H](C)CC)C(=O)N(C)CC(=O)N(C)[C@H]2C/C=C\CCN(C2=O)[C@@H](Cc2ccc(C(F)(F)F)cc2)C(=O)N(C)CC(=O)N[C@@H](CCc2ccc(Cl)c(Cl)c2)C(=O)N2C[C@H](OCC)C[C@H]2C(=O)NC2(CCC2)C(=O)N(C)[C@@H](C2CCCC2)C(=O)N(C)[C@H](C(=O)N(C)C)CC(=O)N1C [PP1250] | AA (a compound having 20 or more is denoted as AA) | A (a compound having 10 or more and less than 20 is denoted as A) |  |
| 0.27 | 72.6 |  | CCO[C@@H]1C[C@H]2C(=O)NC3(CCOCC3)C(=O)N(C)[C@@H](C3CCCC3)C(=O)N(C)[C@H](C(=O)N(C)C)CC(=O)N(C)[C@@H](CC)C(=O)N[C@@H]([C@@H](C)CC)C(=O)N(C)CC(=O)N(C)[C@H]3C/C=C\CCN(C3=O)[C@@H](Cc3ccc(C(F)(F)F)cc3)C(=O)N(C)CC(=O)N[C@@H](CCc3cc(F)c(C(F)(F)F)c(F)c3)C(=O)N2C1 [PP1279] | A (a compound having 10 or more and less than 20 is denoted as A) | A (a compound having 10 or more and less than 20 is denoted as A) |  |
